Where two headings read alike, the source gives them in different places.
Columns and labels:
human PRMT8 = human PRMT8 (Homo sapiens, UniProt Q9NR22); assay: PRMT8 Biochemical Assay; conditions: PRMT8 IC50 (uM), peptide substrate, 3H-SAM Flashplate assay
Excerpt: S-adenosylmethionine (SAM), S-adenosylhomocysteine (SAH), bicine, Tween20, dimethylsulfoxide (DMSO), bovine skin gelatin (BSG), isopropyl-3-D-thiogalactopyranoside (IPTG), and Tris(2-carboxyethyl)phosphine hydrochloride solution (TCEP) were purchased from Sigma-Aldrich at the highest level of purity possible. ^3H-SAM was purchase from American Radiolabeled Chemicals with a specific activity of 80 Ci/mmol. 384-well streptavidin Flashplates were purchased from PerkinElmer.
E. coli (BL21(DE3) Gold, Stratagene) made competent by the CaCl2 method were transformed with the PRMT8 construct and ampicillin selection. Protein over-expression was accomplished by growing the PRMT8 expressing E. coli clone and inducing expression with 0.3 mM IPTG at 16° C. The culture was grown for 12 hours, harvested by centrifugation, and stored at −80° C. for purification.
GST-tagged PRMT8 was eluted with 50 mM Tris, 2 mM glutathione, pH 7.8. Pooled fractions were cleaved by thrombin (10U) and dialysed in buffer A. GST was removed by reloading the cleaved protein sample onto glutathione sepharose column and PRMT8 was collected in the flow-through fractions. PRMT8 was purified further by ceramic hydroxyapatite chromatography. The column was washed with 50 mM phosphate buffer, 100 mM NaCl, 5% glycerol, 5 mM β-mercaptoethanol, pH 7.8 and PRMT8 was eluted by 100 mM phosphate in the same buffer. Protein was concentrated and buffer was exchanged to 50 mM Tris, 300 mM NaCl, 10% glycerol, 5 mM β-mercaptoethanol, pH 7.8 by ultrafiltration.
General Procedure for PRMT8 Enzyme Assays on Peptide Substrates.
The assays were all performed in a buffer consisting of 20 mM Bicine (pH=7.6), 1 mM TCEP, 0.005% BSG, and 0.002% Tween 20, prepared on the day of use. […] DMSO (1 ul) was added to Columns 11, 12, 23, 24, rows A-H for the maximum signal control and 1 ul of SAH, a known product and inhibitor of PRMT8, was added to columns 11, 12, 23, 24, rows I-P for the minimum signal control. A cocktail (40 ul) containing the PRMT8 enzyme was added by Multidrop Combi (Thermo-Fisher). The compounds were allowed to incubate with PRMT8 for 30 min at room temperature, then a cocktail (10 ul) containing ^3H-SAM and peptide was added to initiate the reaction (final volume=51 ul). […] The assays were stopped by the addition of non-radiolabeled SAM (10 ul) to a final concentration of 400 uM, which dilutes the ^3H-SAM to a level where its incorporation into the peptide substrate is no longer detectable. 50 ul of the reaction in the 384-well polypropylene plate was then transferred to a 384-well Flashplate and the biotinylated peptides were allowed to bind to the streptavidin surface for at least 1 hour before being washed once with 0.1% Tween20 in a Biotek ELx405 plate washer. The plates were then read in a PerkinElmer TopCount plate reader to measure the quantity of ^3H-labeled peptide bound to the Flashplate surface, measured as disintegrations per minute (dpm) or alternatively, referred to as counts per minute (cpm).
Where dpm=disintegrations per minute, cmpd=signal in assay well, and min and max are the respective minimum and maximum signal controls.
Where top and bottom are the normally allowed to float, but may be fixed at 100 or 0 respectively in a 3-parameter fit. The Hill Coefficient normally allowed to float but may also be fixed at 1 in a 3-parameter fit. Y is the % inhibition and X is the compound concentration.

[1] = tested on: mono-methyl arginine in RKO cells; assay: RKO Methylation Assay, In Cell Western (ICW); type: cell-based; conditions: 72 hours
Excerpt: RKO adherent cells were purchased from ATCC (American Type Culture Collection), Manassas, Va., USA. DMEM/Glutamax medium, penicillin-streptomycin, heat inactivated fetal bovine serum, 0.05% trypsin and D-PBS were purchased from Life Technologies, Grand Island, N.Y., USA. Odyssey blocking buffer, 800CW goat anti-rabbit IgG (H+L) antibody, and Licor Odyssey infrared scanner were purchased from Licor Biosciences, Lincoln, Nebr., USA. Mono-methyl arginine antibody was purchased from Cell Signaling Technology, Danvers, Mass., USA. Methanol was purchased from VWR, Franklin, Mass., USA. 10% Tween 20 was purchased from KPL, Inc., Gaithersburg, Md., USA. DRAQ5 was purchased from Biostatus Limited, Leicestershire, UK.
RKO adherent cells were maintained in growth medium (DMEM/Glutamax medium supplemented with 10% v/v heat inactivated fetal bovine serum and 100 units/mL penicillin-streptomycin) and cultured at 37° C. under 5% CO2.
Cell treatment, In Cell Western (ICW) for detection of mono-methyl arginine and DNA content.
Compound (100 nL) from a 96-well source plate was added directly to 384 well cell plate. Plates were incubated at 37° C., 5% CO2 for 72 hours. After three days of incubation, plates were brought to room temperature outside of the incubator for ten minutes and blotted on paper towels to remove cell media. 50 μL of ice cold 100% methanol was added directly to each well and incubated for 30 min at room temperature. After 30 min, plates were transferred to a Biotek EL406 plate washer and washed 2 times with 100 μL per well of wash buffer (1×PBS). Next 60 μL per well of Odyssey blocking buffer (Odyssey Buffer with 0.1% Tween 20 (v/v)) were added to each plate and incubated 1 hour at room temperature. Blocking buffer was removed and 20 μL per well of primary antibody was added (mono-methyl arginine diluted 1:200 in Odyssey buffer with 0.1% Tween 20 (v/v)) and plates were incubated overnight (16 hours) at 4° C. Plates were washed 5 times with 100 μL per well of wash buffer. […] The plates were washed 5 times with 100 μL per well wash buffer then 2 times with 100 μL per well of water. Plates were allowed to dry at room temperature then imaged on the Licor Odyssey machine which measures integrated intensity at 700 nm and 800 nm wavelengths. Both 700 and 800 channels were scanned.
First, the ratio for each well was determined by:
Each plate included fourteen control wells of DMSO only treatment (minimum activation) as well as fourteen control wells for maximum activation treated with 20 μM of a reference compound. The average of the ratio values for each control type was calculated and used to determine the percent activation for each test well in the plate. Reference compound was serially diluted three-fold in DMSO for a total of nine test concentrations, beginning at 20 μM. Percent activation was determined and EC30 curves were generated using triplicate wells per concentration of compound.

human PRMT1 = molecular target: T1, human PRMT1 (Homo sapiens, UniProt Q99873); assay: PRMT1 Biochemical Assay; conditions: peptide substrate, 3H-SAM Flashplate assay; read-out: PRMT1 IC50
T1 construct: GST-tagged PRMT1; made in house; host or cells: High Five insect cells (baculovirus, pFastBac1)
T1 sequence (Q99873 with tags, fused parts or gaps): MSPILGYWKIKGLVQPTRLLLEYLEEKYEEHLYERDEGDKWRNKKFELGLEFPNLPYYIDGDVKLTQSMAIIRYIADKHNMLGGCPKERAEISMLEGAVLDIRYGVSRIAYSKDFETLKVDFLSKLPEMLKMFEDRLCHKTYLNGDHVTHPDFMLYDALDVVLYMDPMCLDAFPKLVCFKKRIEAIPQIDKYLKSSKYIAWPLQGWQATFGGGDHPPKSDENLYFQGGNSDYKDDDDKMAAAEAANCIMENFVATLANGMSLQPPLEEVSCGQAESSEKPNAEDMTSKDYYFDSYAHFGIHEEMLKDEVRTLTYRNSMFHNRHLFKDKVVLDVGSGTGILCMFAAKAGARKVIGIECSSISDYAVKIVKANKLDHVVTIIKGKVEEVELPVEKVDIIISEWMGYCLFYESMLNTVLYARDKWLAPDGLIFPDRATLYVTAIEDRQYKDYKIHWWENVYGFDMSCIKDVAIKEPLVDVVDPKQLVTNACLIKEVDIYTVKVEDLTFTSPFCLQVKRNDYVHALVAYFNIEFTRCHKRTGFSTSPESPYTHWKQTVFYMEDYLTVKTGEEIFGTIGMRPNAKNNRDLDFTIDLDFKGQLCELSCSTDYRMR
In short: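 GST-tagged PRMT1 from baculovirus-infected cells, preincubated with compounds 30 min at room temperature in 20 mM Bicine pH 7.6, 1 mM TCEP, 0.005% BSG, 0.002% Tween 20. Reaction started with ³H-SAM plus biotinylated peptide, stopped with 300 µM cold SAM.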

human PRMT6 = molecular target: T2, human PRMT6 (Homo sapiens, UniProt Q96LA8); assay: PRMT6 Biochemical Assay
T2 construct: Flag-PRMT6-His; made in house; host or cells: HEK 293F cells (BacMam baculovirus, pFastBacMam)
T2 sequence (Q96LA8 with tags, fused parts or gaps): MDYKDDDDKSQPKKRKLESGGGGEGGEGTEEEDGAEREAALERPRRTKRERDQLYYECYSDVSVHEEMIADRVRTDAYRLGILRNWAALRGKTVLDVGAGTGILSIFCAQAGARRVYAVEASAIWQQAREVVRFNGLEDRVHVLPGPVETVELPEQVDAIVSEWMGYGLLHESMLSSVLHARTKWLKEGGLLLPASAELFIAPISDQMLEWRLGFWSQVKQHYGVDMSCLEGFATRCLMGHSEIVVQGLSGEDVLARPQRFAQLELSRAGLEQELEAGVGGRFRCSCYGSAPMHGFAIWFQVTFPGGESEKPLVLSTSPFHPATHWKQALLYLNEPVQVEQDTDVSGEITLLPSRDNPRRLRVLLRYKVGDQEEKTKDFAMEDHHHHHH

[2] = peptide substrate, 3H-SAM Flashplate assay, read-out: PRMT6 IC50

Sequence of human PRMT8 (Q9NR22 whole entry): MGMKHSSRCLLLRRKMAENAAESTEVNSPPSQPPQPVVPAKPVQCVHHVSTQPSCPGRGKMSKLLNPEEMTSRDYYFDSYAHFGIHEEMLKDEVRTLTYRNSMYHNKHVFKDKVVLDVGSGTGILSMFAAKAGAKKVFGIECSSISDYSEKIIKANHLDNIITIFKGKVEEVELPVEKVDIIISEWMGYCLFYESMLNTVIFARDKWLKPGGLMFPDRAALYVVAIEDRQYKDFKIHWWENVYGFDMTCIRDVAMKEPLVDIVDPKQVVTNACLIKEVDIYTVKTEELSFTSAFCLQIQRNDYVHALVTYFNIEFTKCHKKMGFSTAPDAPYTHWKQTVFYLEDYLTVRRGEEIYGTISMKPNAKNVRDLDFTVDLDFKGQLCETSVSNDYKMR

IC50 (human PRMT8) | IC50 (human PRMT1) | IC50 (human PRMT6; [2]) | SMILES | ICW EC30 [1] | IC50 (human PRMT6; PRMT6 IC50 (uM))
0.0264 µM | 5.25 nM | 0.0146 µM | CNCCN(C)Cc1c[nH]nc1-c1ccc(N(C)CCCOc2ccc(OC)cc2)cc1 [Compound 12] | 449.8 nM | –
0.342 µM | 172 nM | 0.0286 µM | CNCCN(C)Cc1c[nH]nc1-c1ccc(OC2CC(OCCC(O)CO)C2)cc1 (stereo not drawn) [Compound 149] | >20000 nM | –
0.3 µM | 48.9 nM | 0.619 µM | CNCCN(C)Cc1c[nH]nc1-c1cc(OCCCO)cc(C(F)(F)F)c1 [Compound 130] | 11844 nM | –
0.043 µM | 24.7 nM | 0.0309 µM | CNCCN(C)Cc1c[nH]nc1-c1ccc(S(C)(=O)=O)cc1 [Compound 92] | 2126 nM | –
0.371 µM | 43 nM | > 10 µM | CCOCC(C)(C)c1cc(OCCOC)cc(-c2n[nH]cc2CN(C)CCNC)c1 [Compound 122] | 6626 nM | –
0.0173 µM | 6.68 nM | 0.011 µM | CNCCN(C)Cc1c[nH]nc1-c1ccc(OCCc2ccccc2)cc1 [Compound 25] | 97 nM | –
0.282 µM | 24.7 nM | 0.0322 µM | CNCCN(C)Cc1c[nH]nc1-c1ccc(OCC2COC2)cc1 [Compound 91] | 3058 nM | –
0.0193 µM | 5.79 nM | 0.00238 µM | CNCCN(C)Cc1c[nH]nc1-c1ccc(OCCOc2ccc(Oc3ccc(OCCOC)cc3)cc2)cc1 [Compound 15] | 220.1 nM | –
0.0168 µM | 11.5 nM | 0.0435 µM | CNCCN(C)Cc1c[nH]nc1-c1cc(Cl)c(OCC(C)C)c(C(F)(F)F)c1 [Compound 56] | 765 nM | –
0.0947 µM | 19.9 nM | 0.0445 µM | CNCCN(C)Cc1c[nH]nc1-c1ccc2oc(C(C)C)nc2c1 [Compound 81] | 927 nM | –
0.0233 µM | 7.37 nM | 0.00562 µM | CNCCN(C)Cc1c[nH]nc1-c1ccc(OCCOc2ccc(OC(C)C)cc2)cc1 [Compound 33] | 232 nM | –
0.15 µM | 49.4 nM | > 10 µM | CCOCC(C)c1cc(OCCOC)cc(-c2n[nH]cc2CN(C)CCNC)c1 (stereo not drawn) [Compound 132] | 3608 nM | –
0.189 µM | 20.3 nM | 0.0777 µM | CNCCN(C)Cc1c[nH]nc1-c1cnc(OCCCOC)c(C(F)(F)F)c1 [Compound 82] | 4060 nM | –
0.459 µM | 65.4 nM | 0.00828 µM | CN(CCN)Cc1c[nH]nc1-c1ccc2c(c1)OCC(=O)N2 [Compound 152] | >20000 nM | –
0.0122 µM | 4.58 nM | 0.00685 µM | CNCCN(C)Cc1c[nH]nc1-c1cc(F)c(OCC2CCC2)c(C(F)(F)F)c1 [Compound 5] | 468 nM | –
0.042 µM | 11.8 nM | 0.00902 µM | CNCCN(C)Cc1c[nH]nc1-c1ccc(N(C)CCOc2cccc(OC)c2)cc1 [Compound 57] | 757.7 nM | –
0.342 µM | 30.9 nM | 2.66 µM | CNCCN(C)Cc1c[nH]nc1-c1cc(C(=O)NCCOC)cc(C(F)(F)F)c1 [Compound 101] | 11123 nM | –
0.123 µM | 41.5 nM | 0.0329 µM | CNCCN(C)Cc1c[nH]nc1-c1ccc(OC2CCOCC2)nc1 [Compound 119] | 1292 nM | –
0.0421 µM | 33.3 nM | 0.0274 µM | CNCCN(C)Cc1c[nH]nc1-c1cc(F)c(OCCOC)c(C(F)(F)F)c1 [Compound 103] | 850 nM | –

IC50 (human PRMT8) | IC50 (human PRMT1) | IC50 (human PRMT6; [2]) | SMILES | ICW EC30 [1] | IC50 (human PRMT6; PRMT6 IC50 (uM))
0.0525 µM | 12.7 nM | 1.2 µM | CCCOCCOc1cc(-c2n[nH]cc2CN(C)CCNC)cc(C(F)(F)F)c1 [Compound 60] | 1263 nM | –
0.0398 µM | 8.22 nM | 0.00632 µM | CNCCN(C)Cc1c[nH]nc1-c1ccc(OCCOc2cccc(C(O)CO)c2)cc1 (stereo not drawn) [Compound 148] | 8688 nM | –
0.0445 µM | 13.1 nM | 0.0317 µM | CNCCN(C)Cc1ccnn1C1CCC2(CCCO2)CC1 (stereo not drawn) [Compound 63] | 172.7 nM | –
0.113 µM | 28.5 nM | 0.0289 µM | CNCCN(C)Cc1c[nH]nc1-c1ccc(OC2CCC(OCCOC)CC2)cc1 (stereo not drawn) [Compound 98] | 868.5 nM | –
0.035 µM | 15.3 nM | 0.0101 µM | CNCCN(C)Cc1c[nH]nc1-c1ccc(OCCOc2ccc(OCCOC)cc2)cc1 [Compound 72] | 163 nM | –
0.0955 µM | 41.2 nM | 0.0342 µM | CNCCN(C)Cc1c[nH]nc1-c1ccc(OC(CO)CC(C)C)cc1 (stereo not drawn) [Compound 118] | 1175 nM | –
0.0608 µM | 6.47 nM | 0.0169 µM | CNCCN(C)Cc1c[nH]nc1-c1cc(F)c(OC2COC2)c(C(F)(F)F)c1 [Compound 23] | 1296 nM | –
0.201 µM | 34 nM | 3.51 µM | CCC(CO)Oc1cc(-c2n[nH]cc2CN(C)CCNC)cc(C(F)(F)F)c1 (stereo not drawn) [Compound 106] | 3700 nM | –
0.326 µM | 24.8 nM | 3.38 µM | CNCCN(C)Cc1c[nH]nc1-c1cc(OCCC(C)(C)O)cc(C(F)(F)F)c1 [Compound 93] | 4550 nM | –
0.0218 µM | 3.61 nM | 0.012 µM | CNCCN(C)Cc1c[nH]nc1-c1cc(Cl)c(OCC2CCC2)c(Cl)c1 [Compound 2] | 304 nM | –
0.132 µM | 6.5 nM | 0.212 µM | CNCCN(C)Cc1c[nH]nc1-c1cc(OCCOC)cc(C(F)F)c1 [Compound 24] | 1251 nM | –
0.228 µM | 20.7 nM | 0.707 µM | CNCCN(C)Cc1c[nH]nc1-c1cc(OC2CCOC2)cc(C(F)(F)F)c1 (stereo not drawn) [Compound 84] | 4957 nM | –
0.0535 µM | 11.2 nM | 0.0329 µM | CNCCN(C)Cc1ccnn1C1CCC2(CCOC2)CC1 (stereo not drawn) [Compound 54] | 680 nM | –
0.317 µM | 39.2 nM | 2.32 µM | CNCCN(C)Cc1c[nH]nc1-c1ccc(N(C)C2CCOCC2)nc1 [Compound 117] | 8433 nM | –
0.0446 µM | 45.5 nM | 0.0737 µM | CNCCN(C)Cc1cnn(C)c1-c1cccc(OC2CC2)c1 [Compound 126] | 1272 nM | –
0.112 µM | 6.94 nM | 0.276 µM | COCCOc1cc(-c2n[nH]cc2CN(C)CCN)cc(C(F)F)c1 [Compound 29] | 5437 nM | –
0.042 µM | 12.2 nM | 0.0347 µM | CNCCN(C)Cc1ccnn1C1CCC2(CCOCC2)CC1 [Compound 59] | 246.4 nM | –
0.0514 µM | 8.9 nM | 0.00498 µM | CNCCN(C)Cc1c[nH]nc1-c1ccc(OCCOc2ccc(C)cc2)cc1 [Compound 42] | 185 nM | –
0.0608 µM | 7.05 nM | 0.0135 µM | CN(CCN)Cc1c[nH]nc1-c1cc(F)c(Cl)c(C(F)(F)F)c1 [Compound 30] | 648 nM | –

SMILES | IC50 (human PRMT8) | IC50 (human PRMT1) | IC50 (human PRMT6; [2]) | ICW EC30 [1] | IC50 (human PRMT6; PRMT6 IC50 (uM))
CCOCC(C)(C)c1ccc(-c2n[nH]cc2CN(C)CCNC)cc1 [Compound 105] | 0.106 µM | 34 nM | – | 2748 nM | 0.0559 µM
